Assay: Antagonist activity at CRTh2 receptor in human whole blood assessed as inhibition of PGD2-induced eosinophil shape change preincubated for 10 mins with PGD2 addition measured after 4 mins by forward scatter and side scatter analysis

Point of comparison: `CCN(Cc1cc(C(F)(F)F)ccc1-n1cc(CC(=O)O)c2cccnc21)C(=O)C1CC1`, IC50 34 nM. Against it:
- CCN(Cc1cc(C)ccc1-n1cc(CC(=O)O)c2ccc(C)nc21)C(=O)C1CC1 — 2.6-fold lower, 13 nM
- CCN(Cc1cc(C(F)(F)F)ccc1-c1cn(CC(=O)O)c2ccc(C)nc12)C(=O)C1CC1 — 3.4-fold lower, 10 nM
- CCN(Cc1cc(OC(F)(F)F)ccc1-n1cc(CC(=O)O)c2ccc(C)nc21)C(=O)C1CC1 — 5.1-fold lower, 6.7 nM
- CCN(Cc1cc(C(F)(F)F)ccc1-n1cc(CC(=O)O)c2ccc(C)nc21)C(=O)C1CC1 — 4.4-fold lower, 7.8 nM
- CCN(Cc1ccccc1-n1cc(CC(=O)O)c2ccc(C(F)(F)F)cc21)C(=O)C1CC1 — 4.4-fold lower, 7.7 nM
- CCN(Cc1cc(C(F)(F)F)ccc1-n1cc(CC(=O)O)c2ccc(C(F)F)nc21)C(=O)C1CC1 — 4.2-fold lower, 8 nM
- CCN(Cc1cc(C(F)(F)F)ccc1-c1nn(CC(=O)O)c2cccc(OC)c12)C(=O)C1CC1 — within 1.5-fold, 27 nM
- CCN(Cc1cc(C(F)(F)F)ccc1-c1nn(CC(=O)O)c2cccc(F)c12)C(=O)C1CC1 — within 1.5-fold, 23 nM
- CCN(Cc1cc(C(F)(F)F)ccc1-n1cc(CC(=O)O)c2ccc(C)nc21)C(=O)CC1CC1 — within 1.5-fold, 29 nM
- CCN(Cc1cc(F)ccc1-n1cc(CC(=O)O)c2cccnc21)C(=O)C1CC1 — 3.1-fold lower, 11 nM
- CCN(Cc1cc(C(F)(F)F)ccc1-c1nn(CC(=O)O)c2cccc(Cl)c12)C(=O)C1CC1 — 4.7-fold higher, 160 nM
- CCN(Cc1cc(F)ccc1-n1cc(CC(=O)O)c2ccc(C)nc21)C(=O)C1CC1 — 5.3-fold lower, 6.4 nM
- CCN(Cc1cc(C(F)(F)F)ccc1-c1cc(CC(=O)O)c2ccc(C)nn12)C(=O)C1CC1 — 4.7-fold lower, 7.3 nM
- Cc1ccc2c(CC(=O)O)cn(-c3ccc(C(F)(F)F)cc3CN(CC3CC3)C(=O)C3CC3)c2n1 — 1.5-fold lower, 22 nM
- CCN(Cc1cc(C(F)(F)F)ccc1-n1cc(CC(=O)O)c2ccc(C)nc21)C(=O)C1CCC1 — 4-fold lower, 8.5 nM
- CCN(Cc1cc(C(F)(F)F)ccc1-c1nn(CC(=O)O)c2ccc(C)cc12)C(=O)C1CC1 — 2.6-fold lower, 13 nM
- CCN(Cc1cc(C(F)(F)F)ccc1-c1cc(CC(=O)O)n2ccc(C)nc12)C(=O)C1CC1 — within 1.5-fold, 24 nM
- CCN(Cc1cc(C(F)(F)F)ccc1-c1nn(CC(=O)O)c2cccc(C#N)c12)C(=O)C1CC1 — 3-fold higher, 103 nM
- CCN(Cc1ccccc1-n1cc(CC(=O)O)c2ccc(C)nc21)C(=O)C1CC1 — 3.6-fold lower, 9.5 nM
- CCN(Cc1cc(C(F)(F)F)ccc1-c1nn(CC(=O)O)c2cccc(C)c12)C(=O)C1CC1 — 3.2-fold higher, 108 nM
- CCN(Cc1cc(C(F)(F)F)ccc1-n1cc(CC(=O)O)c2ccc(C)nc21)C(=O)NCc1ccccc1 — 7.2-fold lower, 4.7 nM
- CCN(Cc1cc(F)ccc1-c1cn(CC(=O)O)c2ccc(C(F)(F)F)cc12)C(=O)C1CC1 — 2-fold lower, 17 nM
- CCN(Cc1cc(C(F)(F)F)ccc1-c1nn(CC(=O)O)c2ccc(Cl)cc12)C(=O)C1CC1 — within 1.5-fold, 23 nM
- CCN(Cc1cc(C(F)(F)F)ccc1-n1cc(CC(=O)O)c2ccc(C)nc21)C(=O)COC — 6.8-fold lower, 5 nM
- CCN(Cc1cc(C(F)(F)F)ccc1-c1nn(CC(=O)O)c2ccc(F)c(Cl)c12)C(=O)C1CC1 — 2.1-fold higher, 71 nM
- CCN(Cc1cc(C(F)(F)F)ccc1-n1cc(CC(=O)O)c2ccc(C)nc21)C(=O)Cc1ccccc1 — within 1.5-fold, 25 nM
- CCN(Cc1cc(C(F)(F)F)ccc1-c1cn(CC(=O)O)c2ccc(C(F)(F)F)nc12)C(=O)C1CC1 — 2.4-fold higher, 82 nM
- CCN(Cc1cc(C(F)(F)F)ccc1-c1nn(CC(=O)O)c2ccc(Cl)c(F)c12)C(=O)C1CC1 — 1.9-fold lower, 18 nM
- CCN(Cc1cc(C(F)(F)F)ccc1-c1nn(CC(=O)O)c2ccc(F)cc12)C(=O)C1CC1 — the same, 34 nM
- CCN(Cc1cc(Cl)ccc1-n1cc(CC(=O)O)c2ccc(C)nc21)C(=O)C1CC1 — 1.9-fold lower, 18 nM
- Cc1ccc2c(CC(=O)O)cn(-c3ccc(C(F)(F)F)cc3CN(CCOc3ccccc3)C(=O)C3CC3)c2n1 — 1.8-fold higher, 60 nM
